This note sets out measurements from PubChem BioAssay AID1919006 (Molecular Pharmacology Branch, DTP, NCI, 2023).

Molecules are shown by their SMILES. “And” between values parts separate entries of the source, which are not always exact repeats. Equal entries are not always repeated. A value given as a limit tells only on which side of the number the result lay.

The assay relates to 885512-296-R-J2-PDC complex spheroid growth, % test/control. The assay is described as follows: Anticancer human tumor 885512-296-R-J2-PDC patient-derived breast carcinoma cell line growth inhibition [AhR]. The following applies: for viability, T/C: stronger effect = lower value; for IC50: curve of compound. The text has this: Multicellular complex tumor spheroid response to aryl hydrocarbon receptor antagonists in combination with a variety of drugs and investigational agents in selected tumor cell lines
The current study was undertaken to assess response to aryl hydrocarbon receptor antagonists in combination with standard-of-care drugs and investigational agents in solid tumor complex spheroid models. Complex spheroids include a stromal component modeled by human endothelial cells (HUVEC) and fibroblasts modeled by human mesenchymal stem cells (MSCs). The concentration ranges selected for each drug and investigational agent were based upon clinically achievable concentrations if the clinical Cmax of the agent was known.
Compounds. The drugs and investigational agents: BAY 2416964 (NSC825713), GNF351 (NSC835774), CH-223191 (NSC835775), CPI-455 (NSC825282), aza-TdCyd (NSC777586), decitabine (NSC127716), belinostat (NSC758774), entinostat (NSC756642), pevonedistat (NSC761192), tazemetostat (NSC777109), talazoparib (NSC765396), olaparib (NSC753686), selinexor (NSC780203), nedisertib (M3814, NSC802822), bortezomib (NSC756655), venetoclax (NSC766270), doxorubicin (NSC123127), elimusertib (BAY189344, NSC800525), ceralasertib (AZD6738, NSC777638), TAK-243 (NSC785004), alisertib (NSC759677), etoposide (NSC141540), topotecan (NSC609699), eribulin (NSC707389), gemcitabine (NSC613327), carboplatin (NSC241240), cisplatin (NSC119875), and SN-38 (NSC673596) were obtained from the National Cancer Institute (NCI) Developmental Therapeutics Program Chemical Repository (32). The FDA-approved anticancer drug set is available from the Developmental Therapeutics Program at https://dtp.cancer.gov/organization/dscb/obtaining/available plates.htm. […] The stock solutions were prepared in dimethyl sulfoxide (DMSO, Sigma-Aldrich, St. Louis, MO, cat. D2650), except for the platinum compounds which were prepared in saline (Quality Biological, Gaithersburg, MD, cat. 114-055-101), at 800-fold the tested concentration and stored at -70 degrees C prior to their use. All drugs and investigational agents were tested over a range starting from a high concentration at or near the clinical Cmax and decreasing in half-log increments. If the clinical Cmax for an agent had not been determined, the highest concentration tested was 10 microM (Table 1).
Cell Culture. All cells were maintained in an incubator at 37 degrees C and 5% CO2 with 95% humidity. The PDC lines were cultured according to standard operating procedures established by the NCI PDMR (https://pdmr.cancer.gov). Briefly, all PDCs were thawed and cultured in Matrigel-coated flasks prepared with a working solution of 1X Ham's F-12 nutrient mix, without supplementation (Invitrogen, Waltham, MA, cat. 11765054), 100 U/mL penicillin-streptomycin (Invitrogen, cat. 15140122), and 2.5% Matrigel (Corning Inc., Corning, NY, cat. 354248) for the first three passages. All PDCs were cultured in complete DMEM/F-12 media containing advanced DMEM/F-12 (Invitrogen, cat. 12634028), 4.9% defined fetal bovine serum, heat inactivated (HyClone Laboratories Inc., Logan, UT, cat. SH30070.03HI), 389 ng/mL hydrocortisone (Sigma-Aldrich, cat. H4001), 9.7 ng/mL human EGF recombinant protein (Invitrogen, cat. PHG0313), 23.4 microg/mL adenine (Sigma-Aldrich, cat. A2786), 97.3 U/mL penicillin-streptomycin (Invitrogen, cat. 15140122), 1.9 mM L-glutamine (Invitrogen, cat. 25030081), and 9.7 microM Y-27632 dihydrochloride (Tocris Bioscience, Bristol, United Kingdom, cat. 1254). The PDCs were cultured in complete DMEM/F12 media without 10 microM Y-27632 dihydrochloride for at least two passages prior to the screen. The established cell lines NCI-H1341 and […] were cultured in DMEM/F-12, HEPES (Invitrogen, cat. 11330032), 5% defined fetal bovine serum (HyClone Laboratories Inc., cat. SH30070.03), ITS premix universal culture supplement [insulin (5 microg/mL), transferrin (5 microg/mL), and selenious acid (5 ng/mL)] […]
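Further: spheroids exposed to compounds for seven days.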

For the compound `CC(C)CC(NC(=O)C(Cc1ccccc1)NC(=O)c1cnccn1)B(O)O` (configuration not stated), the IC50 was 5.92 nM and 6.34 nM and 5.04 nM. The viability, T/C (compound 0.000949 µM) is 106% and 93.4% and 96.8%. For the same compound, the viability, T/C (compound 0.003 µM) was 94.4% and 94.7% and 83.5%. For the same compound, the viability, T/C (compound 0.00949 µM) was 19.2% and 26.2% and 9.11%. The viability, T/C (compound 0.03 µM) was 1.45% and 1.42% and 0.86%. The viability, T/C (compound 0.0949 µM) was 0.43% and 0.3% and 0.26%. Under “compound 0.3 µM”, the viability, T/C was 0.27% and 0.21% and 0.15%.
For `CC1COCCN1c1cc(-c2ccnn2C)c2ccnc(-c3ccn[nH]3)c2n1` (configuration not stated), the IC50 was 34 nM and 36 nM and 45.5 nM. Besides, the viability, T/C (compound 0.00316 µM) was 82.9% and 88.1% and 101%. The viability, T/C (compound 0.01 µM) is 87.9% and 89.4% and 87.5%. Further, where the note is “compound 0.0316 µM”, the viability, T/C is 51.9% and 54.7% and 68%. The viability, T/C (compound 0.1 µM) was 10.5% and 10.1% and 13%. Besides, for the setting “compound 0.316 µM”, the viability, T/C was 3.44% and 3.12% and 2.94%. For the same compound, where the note is “compound 1 µM”, the viability, T/C was 2.43% and 2.64% and 1.91%.
Take `CCN(c1cc(-c2ccc(CN3CCOCC3)cc2)cc(C(=O)NCc2c(C)cc(C)[nH]c2=O)c1C)C1CCOCC1`: the IC50 was more than 3000 nM. Besides, the viability, T/C (compound 0.00949 µM) is 99.4% and 113% and 105%. Besides, the viability, T/C (compound 0.03 µM) is 116% and 94.8% and 94.7%. The viability, T/C (compound 0.0949 µM) is 93% and 86.7% and 98.8%. Moreover, where the note is “compound 0.3 µM”, the viability, T/C was 89.7% and 91.3% and 78.9%. Moreover, under “compound 0.949 µM”, the viability, T/C is 86.7% and 77.8% and 76.2%. Also, where the note is “compound 3 µM”, the viability, T/C was 72.8% and 67.7% and 80.9%.
Consider `CC[C@@]1(O)C(=O)OCc2c1cc1n(c2=O)Cc2cc3c(CN(C)C)c(O)ccc3nc2-1`, for which the IC50 is 5.36 nM and 5.11 nM and 11.7 nM. The viability, T/C (compound 0.000316 µM) is 105% and 92.5% and 101%. The viability, T/C (compound 0.001 µM) is 101% and 96.7% and 108%. Besides, the viability, T/C (compound 0.00316 µM) is 65.5% and 69.2% and 88%. The viability, T/C (compound 0.01 µM) is 31.4% and 22.4% and 59.5%. The viability, T/C (compound 0.0316 µM) was 6.59% and 7.5% and 7.58%. Also, the viability, T/C (compound 0.1 µM) is 6.75% and 6.73% and 5.44%.
As to `CCc1c2c(nc3ccc(O)cc13)-c1cc3c(c(=O)n1C2)COC(=O)[C@]3(O)CC`, the IC50 was less than 0.949 nM. Besides, under “compound 0.000949 µM”, the viability, T/C is 17.5% and 17.7% and 9.88%. The viability, T/C (compound 0.003 µM) was 9.21% and 7.45% and 8.07%. Moreover, for the setting “compound 0.00949 µM”, the viability, T/C is 6.22% and 5.99% and 5.4%. Besides, the viability, T/C (compound 0.03 µM) is 4.21% and 4.52% and 3.14%. The viability, T/C (compound 0.0949 µM) is 2.53% and 2.06% and 1.76%. Besides, under “compound 0.3 µM”, the viability, T/C is 1.46% and 1.11% and 1.27%.
For the compound `COc1cc(C2c3cc4c(cc3C(OC3OC5COC(C)OC5C(O)C3O)C3COC(=O)C23)OCO4)cc(OC)c1O` (configuration not stated), the IC50 is 613 nM and 774 nM and 399 nM. In addition, the viability, T/C (compound 0.0316 µM) was 107% and 84.7% and 91.2%. Moreover, the viability, T/C (compound 0.1 µM) was 96% and 92.5% and 87.4%. The viability, T/C (compound 0.316 µM) is 78.1% and 72.5% and 59.1%. In addition, the viability, T/C (compound 1 µM) was 29.6% and 44.8% and 14.3%. Further, the viability, T/C (compound 3.16 µM) was 10.7% and 9.52% and 9.14%. The viability, T/C (compound 10 µM) was 8.19% and 5.47% and 7.82%.
Regarding `COc1cccc2c1C(=O)c1c(O)c3c(c(O)c1C2=O)CC(O)(C(=O)CO)CC3OC1CC(N)C(O)C(C)O1` (configuration not stated), the IC50 is less than 31.6 nM. Moreover, for the setting “compound 0.0316 µM”, the viability, T/C was 22.1% and 16.4% and 24.6%. The viability, T/C (compound 0.1 µM) was 20.5% and 11.7% and 14.2%. In addition, the viability, T/C (compound 0.316 µM) was 8.97% and 3.94% and 5.3%. Further, the viability, T/C (compound 1 µM) is 0.67% and 0.49% and 0.27%. Further, the viability, T/C (compound 3.16 µM) is 1.99% and 1.41% and 0.92%. Also, where the note is “compound 10 µM”, the viability, T/C is 1.58% and 1.1% and 0.8%.
Turning to `Cn1ncnc1C1c2n[nH]c(=O)c3cc(F)cc(c23)NC1c1ccc(F)cc1` (configuration not stated), the 50% inhibitory concentration (IC50) is more than 100 nM. Also, the viability, T/C (compound 0.000316 µM) was 96.9% and 103% and 101%. Further, the viability, T/C (compound 0.001 µM) was 88.9% and 93.1% and 107%. For the same compound, the viability, T/C (compound 0.00316 µM) was 90.6% and 91.2% and 108%. Further, the viability, T/C (compound 0.01 µM) was 88.6% and 93.7% and 89%. Besides, where the note is “compound 0.0316 µM”, the viability, T/C was 79.9% and 75.4% and 87.3%. For the same compound, the viability, T/C (compound 0.1 µM) was 58% and 57% and 53.9%.
`Nc1ncn(C2CC(O)C(CO)O2)c(=O)n1` (configuration not stated): the IC50 was 670 nM and 776 nM and 697 nM. The viability, T/C (compound 0.00316 µM) was 90.1% and 103% and 107%. The viability, T/C (compound 0.01 µM) was 89.7% and 93.7% and 117%. The viability, T/C (compound 0.0316 µM) is 98.7% and 97.9% and 108%. Besides, the viability, T/C (compound 0.1 µM) was 82.1% and 86% and 107%. Further, the viability, T/C (compound 0.316 µM) was 65.7% and 74.5% and 72%. In addition, the viability, T/C (compound 1 µM) was 41.9% and 42.8% and 39.9%.
Take `Nc1ncn(C2CC(O)C(CO)S2)c(=O)n1` (configuration not stated): the IC50 was 129 nM and 160 nM and 239 nM. Where the note is “compound 0.000949 µM”, the viability, T/C is 109% and 103% and 93%. The viability, T/C (compound 0.003 µM) is 93.6% and 108% and 103%. The viability, T/C (compound 0.00949 µM) is 96.9% and 120% and 104%. Also, the viability, T/C (compound 0.03 µM) was 89.1% and 99.3% and 116%. For the same compound, the viability, T/C (compound 0.0949 µM) is 56.2% and 61.2% and 75.9%. Besides, for the setting “compound 0.3 µM”, the viability, T/C is 31.1% and 37% and 43.6%.
With `O=C(C=Cn1cnc(-c2cc(C(F)(F)F)cc(C(F)(F)F)c2)n1)NNc1cnccn1`, the IC50 is 75.3 nM and 68.3 nM and 67.1 nM. Besides, the viability, T/C (compound 0.00949 µM) was 95.6% and 113% and 96.3%. Further, the viability, T/C (compound 0.03 µM) is 100% and 113% and 117%. In addition, the viability, T/C (compound 0.0949 µM) was 38% and 25% and 25.8%. The viability, T/C (compound 0.3 µM) is 5.56% and 4.15% and 4.46%. Besides, the viability, T/C (compound 0.949 µM) is 2.2% and 1.47% and 2.93%. For the setting “compound 3 µM”, the viability, T/C was 1.21% and 0.91% and 1.13%.
